{"source": "paper PMC8066102", "about": "“Metabolic Profiles of New Unsymmetrical Bisacridine Antitumor Agents in Electrochemical and Enzymatic Noncellular Systems and in Tumor Cells” (Pharmaceuticals, 2021)", "key": {"UGT2B15": {"target": "T1, UGT2B15 (Homo sapiens, UniProt P54855)", "T1 construct": "purchased Corning, NY, USA (through DIAG-MED, Poland); host or cells: baculovirus-insect cells (Supersomes)", "T1 sequence (P54855 24-530)": "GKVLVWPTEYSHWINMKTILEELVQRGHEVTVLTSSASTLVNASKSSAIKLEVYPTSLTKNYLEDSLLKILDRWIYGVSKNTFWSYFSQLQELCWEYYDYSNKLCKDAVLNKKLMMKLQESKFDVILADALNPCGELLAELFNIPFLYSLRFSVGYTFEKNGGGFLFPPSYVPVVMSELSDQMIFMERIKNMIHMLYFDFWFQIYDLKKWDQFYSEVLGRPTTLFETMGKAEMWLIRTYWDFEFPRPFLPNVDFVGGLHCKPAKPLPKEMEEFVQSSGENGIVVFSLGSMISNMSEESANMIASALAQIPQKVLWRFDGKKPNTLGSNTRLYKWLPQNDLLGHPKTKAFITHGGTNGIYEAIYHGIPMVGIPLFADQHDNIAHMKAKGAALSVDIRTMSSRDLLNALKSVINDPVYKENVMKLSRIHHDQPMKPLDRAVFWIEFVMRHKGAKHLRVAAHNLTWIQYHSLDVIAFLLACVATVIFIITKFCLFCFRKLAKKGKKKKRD", "assay": "Modulation of UGT2B15 activity (TFK glucuronidation)", "format": "in vitro ADME", "settings": "UGT2B15 isoenzyme preparation, pH 7.4, probe TFK, TFK substrate", "protocol": "(§1) Isoenzyme activity was studied by the rate measurement of β-hydroxylation of testosterone (specific substrate for P4503A4) and of glucuronidation of specific substrates, namely, SN-38 (UGT1A1), EPI (UGT2B7),) and TFK (UGT2B15). All substrate and drug solutions were prepared as 10 mM stock solutions in DMSO and were diluted in […] (pH 7.4). The mixture containing isoenzymes P4503A4/UGT (0.5 mg/mL), probe substrate (0.1 mM), cofactor 2 mM NADPH/5 mM UDPGA and the increasing concentrations of tested UA (0, 0.01, 0.02 and 0.05 mM) was incubated in the reaction buffer containing (i) for P4503A4 0.1 M HEPES, 88 mM MgCl2 and (ii) for UGT 0.1 M HEPES, 88 mM MgCl2, 25 μg/mL alamethicin at 37 °C for 30 min and were terminated by adding 8.75 µL of 0.1 M HCl. The samples were placed in ice for 10 min and centrifuged (10 min, 13,400 rpm). Supernatant fractions were analyzed by HPLC. For more accurate investigation of P4503A4 inhibition by C-2045 and C-2053 the β-hydroxylation rate was measured at various concentrations of testosterone: 0.02, 0.05, 0.1 and 0.2 mM. The inhibitor (UA) concentrations were 0, 0.001, 0.005 and 0.01 mM, whereas the incubation time 30 min and concentration of P4503A4 (0.5 mg/mL)."}, "UGT1A1": {"target": "T2, UGT1A1 (Homo sapiens, UniProt P22309)", "T2 sequence (P22309 26-533)": "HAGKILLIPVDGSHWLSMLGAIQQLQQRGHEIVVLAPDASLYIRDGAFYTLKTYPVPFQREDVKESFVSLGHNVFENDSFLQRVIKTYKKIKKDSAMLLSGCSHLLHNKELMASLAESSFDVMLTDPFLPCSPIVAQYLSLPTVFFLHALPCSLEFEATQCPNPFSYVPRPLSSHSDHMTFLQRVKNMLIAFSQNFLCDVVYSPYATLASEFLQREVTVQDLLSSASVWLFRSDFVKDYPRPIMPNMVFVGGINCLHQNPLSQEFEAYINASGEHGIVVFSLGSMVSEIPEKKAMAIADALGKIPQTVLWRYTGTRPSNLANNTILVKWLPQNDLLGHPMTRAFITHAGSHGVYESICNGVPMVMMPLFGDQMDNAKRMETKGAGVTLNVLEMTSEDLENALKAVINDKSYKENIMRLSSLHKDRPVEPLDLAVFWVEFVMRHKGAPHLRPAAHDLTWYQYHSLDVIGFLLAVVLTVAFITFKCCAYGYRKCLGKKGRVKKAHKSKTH", "assay": "Modulation of UGT1A1 activity (SN-38 glucuronidation)", "format": "in vitro ADME", "set-up": "purchased Corning, NY, USA (through DIAG-MED, Poland); host or cells: baculovirus-insect cells (Supersomes)", "settings": "SN-38 substrate", "protocol": "as §1"}}}
{"smiles": "CN(CCCNc1c2ccccc2nc2cccc([N+](=O)[O-])c12)CCCNc1ccc2ncn3c4ccccc4c(=O)c1c23", "note": "[C-2028]", "values": [{"measurement": "inhibition at 30 min, 0.05 mM", "setting": "UGT2B15; highest concentration", "value": 80, "unit": "%"}, {"measurement": "inhibition at 30 min", "setting": "UGT2B15; lowest concentrations", "value": "~30", "unit": "%"}, {"measurement": "activity decrease of UGT1A1", "setting": "UGT1A1; low concentrations of compound", "value": 77, "unit": "%"}, {"measurement": "inhibition at 30 min", "setting": "UGT1A1; human, UGT1A1 isoenzyme preparation, pH 7.4, probe SN-38, higher concentrations of compound, read-out: inhibition rate of UGT1A1", "value": "65 to 70", "unit": "%"}]}
